# From US10538495B2, “Modulators of indoleamine 2,3-dioxygenase” (GLAXOSMITHKLINE INTELLECTUAL PROPERTY DEVELOPMENT LIMITED, priority 2016, dated 2020)
# Counter-ions that a name gives are not always drawn.
# Biological target: indoleamine 2,3-dioxygenase (IDO1) (Homo sapiens, UniProt P14902)
# Assay: HeLa IDOi assay (kynurenine by mass spectrometry)
# Type: cell-based
# Parameters: human epithelial HeLa cells (CCL-2; host or cells: HeLa cells stimulated with human IFN-γ
# Conditions: IFN-γ stimulated HeLa cells, 2 days, kynurenine detected by mass spectrometry; read-out: HeLa pIC50 (converted)
# Procedure: Brief descriptions of the cellular assays are provided following the table.
# Compounds of the present invention were tested via high-throughput cellular assays utilizing detection of kynurenine via mass spectrometry and cytotoxicity as end-points. For the mass spectrometry and cytotoxicity assays, human epithelial HeLa cells (CCL-2; ATCC®, Manassas, Va.) were stimulated with human interferon-γ (IFN-γ) (Sigma-Aldrich Corporation, St. Louis, Mo.) to induce the expression of indoleamine 2,3-dioxygenase (IDO1). Compounds with IDO1 inhibitory properties decreased the amount of kynurenine produced by the cells via the tryptophan catabolic pathway. Cellular toxicity due to the effect of compound treatment was measured using CellTiter-Glo® reagent (CTG) (Promega Corporation, Madison, Wis.), which is based on luminescent detection of ATP, an indicator of metabolically active cells.
# In preparation for the assays, test compounds were serially diluted 3-fold in DMSO from a typical top concentration of 5 mM and plated at 0.5 μL in 384-well, polystyrene, clear bottom, tissue culture treated plates with lids (Greiner Bio-One, Kremsmünster, Austria) to generate 11-point dose response curves. Low control wells (0% kynurenine or 100% cytotoxicity) contained either 0.5 μL of DMSO in the presence of unstimulated (−IFN-γ) HeLa cells for the mass spectrometry assay or 0.5 μL of DMSO in the absence of cells for the cytotoxicity assay, and high control wells (100% kynurenine or 0% cytotoxicity) contained 0.5 μL of DMSO in the presence of stimulated (+IFN-γ) HeLa cells for both the mass spectrometry and cytotoxicity assays.
# Frozen stocks of HeLa cells were washed and recovered in DMEM high glucose medium with HEPES (Thermo Fisher Scientific, Inc., Waltham, Mass.) supplemented with 10% v/v certified fetal bovine serum (FBS) (Thermo Fisher Scientific, Inc., Waltham, Mass.), and 1× penicillin-streptomycin antibiotic solution (Thermo Fisher Scientific, Inc., Waltham, Mass.). The cells were diluted to 100,000 cells/mL in the supplemented DMEM medium. 50 μL of either the cell suspension, for the mass spectrometry assay, or medium alone, for the cytotoxicity assay, were added to the low control wells, on the previously prepared 384-well compound plates, resulting in 5,000 cells/well or 0 cells/well respectively. IFN-γ was added to the remaining cell suspension at a final concentration of 10 nM, and 50 μL of the stimulated cells were added to all remaining wells on the 384-well compound plates. The plates, with lids, were then placed in a 37° C., 5% CO2 humidified incubator for 2 days.
# Following incubation, the 384-well plates were removed from the incubator and allowed to equilibrate to room temperature for 30 minutes. For the cytotoxicity assay, CellTiter-Glo® was prepared according to the manufacturer's instructions, and 10 μL were added to each plate well. After a twenty minute incubation at room temperature, luminescence was read on an EnVision® Multilabel Reader (PerkinElmer Inc., Waltham, Mass.). For the mass spectrometry assay, 10 μL of supernatant from each well of the compound-treated plates were added to 40 μL of acetonitrile, containing 10 μM of an internal standard for normalization, in 384-well, polypropylene, V-bottom plates (Greiner Bio-One, Kremsmünster, Austria) to extract the organic analytes. Following centrifugation at 2000 rpm for 10 minutes, 10 μL from each well of the acetonitrile extraction plates were added to 90 μL of sterile, distilled H2O in 384-well, polypropylene, V-bottom plates for analysis of kynurenine and the internal standard on the RapidFire 300 (Agilent Technologies, Santa Clara, Calif.) and 4000 QTRAP MS (SCIEX, Framingham, Mass.). MS data were integrated using Agilent Technologies' RapidFire Integrator software, and data were normalized for analysis as a ratio of kynurenine to the internal standard. […]
# indoleamine 2,3-dioxygenase (IDO1), sequence (P14902 whole entry): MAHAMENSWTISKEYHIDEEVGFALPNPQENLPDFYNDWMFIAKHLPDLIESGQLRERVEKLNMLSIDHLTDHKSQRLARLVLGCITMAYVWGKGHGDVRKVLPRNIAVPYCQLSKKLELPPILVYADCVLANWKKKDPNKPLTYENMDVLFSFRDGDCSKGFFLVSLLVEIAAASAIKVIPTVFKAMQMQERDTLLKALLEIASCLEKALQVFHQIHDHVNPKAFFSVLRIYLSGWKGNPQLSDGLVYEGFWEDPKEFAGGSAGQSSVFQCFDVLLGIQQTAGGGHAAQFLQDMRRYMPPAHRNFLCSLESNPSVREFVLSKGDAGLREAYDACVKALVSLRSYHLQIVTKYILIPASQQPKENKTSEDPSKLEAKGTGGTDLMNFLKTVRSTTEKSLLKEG
row,SMILES,IC50 [nM]
1,"CC(C)(C)Sc1ccc(-c2ccccc2-c2nn[nH]n2)cc1NC(=O)Cc1cnccn1 [Example 5, N-(4-(tert-butylthio)-2′-(2H-tetrazol-5-yl)-[1,1′-biphenyl]-3-yl)-2-(pyrazin-2-yl)acetamide]",> 10000
2,"CC(C)(C)Sc1ccc(-c2ccccc2-c2nn[nH]n2)cc1NC(=O)Cc1ccncc1 [Example 6, N-(4-(tert-butylthio)-2′-(2H-tetrazol-5-yl)-[1,1′-biphenyl]-3-yl)-2-(pyridin-4-yl)acetamide]",6310
3,"CC(C)(C)Sc1ccc(-c2ccccc2-c2nn[nH]n2)cc1NC(=O)Cc1ccc(C#N)cc1 [Example 7, N-(4-(tert-butylthio)-2′-(2H-tetrazol-5-yl)-[1,1′-biphenyl]-3-yl)-2-(4-cyanophenyl)acetamide]",5010
4,"Cc1cc(CC(=O)Nc2cc(-c3ccccc3-c3nn[nH]n3)ccc2SC(C)(C)C)on1 [Example 8, N-(4-(tert-butylthio)-2′-(2H-tetrazol-5-yl)-[1,1′-biphenyl]-3-yl)-2-(3-methylisoxazol-5-yl)acetamide]",6310
5,"CC(C)(C)Sc1ccc(-c2ccccc2-c2nn[nH]n2)cc1NC(=O)Cc1cncnc1 [Example 9, N-(4-(tert-butylthio)-2′-(2H-tetrazol-5-yl)-[1,1′-biphenyl]-3-yl)-2-(pyrimidin-5-yl)acetamide]",> 10000
6,"COCCCSc1ccc(-c2ccccc2-c2nn[nH]n2)cc1NC(=O)Cc1ccc(C)cc1 [Example 11, N-(4-((3-methoxypropyl)thio)-2′-(2H-tetrazol-5-yl)-[1,1′-biphenyl]-3-yl)-2-(p-tolyl)acetamide]",1000
7,"Cc1ccc(CC(=O)Nc2cc(-c3ccccc3-c3nn[nH]n3)ccc2SC2CCOCC2)cc1 [Example 12, N-(4-((tetrahydro-2H-pyran-4-yl)thio)-2′-(2H-tetrazol-5-yl)-[1,1′-biphenyl]-3-yl)-2-(p-tolyl)acetamide]",5010
8,"CC(C)(C)Sc1ccc(-c2ccccc2-c2nn[nH]n2)cc1NC(=O)CC1CC1 [Example 17, N-(4-(tert-butylthio)-2′-(2H-tetrazol-5-yl)-[1,1′-biphenyl]-3-yl)-2-cyclopropylacetamide]",2510
9,"CC(C)(C)Sc1ccc(-c2ccccc2-c2nn[nH]n2)cc1NC(=O)CC1CCCCC1 [Example 18, N-(4-(tert-butylthio)-2′-(2H-tetrazol-5-yl)-[1,1′-biphenyl]-3-yl)-2-cyclohexylacetamide]",3980
10,"Cc1ccc(CC(=O)Nc2cc(-c3ccccc3-c3nn[nH]n3)ccc2SC(C)(C)C)cc1F [Example 21, N-(4-(tert-butylthio)-2′-(2H-tetrazol-5-yl)-[1,1′-biphenyl]-3-yl)-2-(3-fluoro-4-methylphenyl)acetamide]",20
11,"COc1ccc(CC(=O)Nc2cc(-c3ccccc3-c3nn[nH]n3)ccc2SC(C)(C)C)cc1 [Example 22, N-(4-(tert-butylthio)-2′-(2H-tetrazol-5-yl)-[1,1′-biphenyl]-3-yl)-2-(4-methoxyphenyl)acetamide]",31.6
12,"COc1ccc(CC(=O)Nc2cc(-c3ccccc3-c3nn[nH]n3)ccc2SC(C)(C)C)cc1F [Example 23, N-(4-(tert-butylthio)-2′-(2H-tetrazol-5-yl)-[1,1′-biphenyl]-3-yl)-2-(3-fluoro-4-methoxyphenyl)acetamide]",63.1
13,"CC(C)(C)Sc1ccc(-c2ccccc2-c2nn[nH]n2)cc1NC(=O)Cc1ccc(F)cc1 [Example 24, N-(4-(tert-butylthio)-2′-(2H-tetrazol-5-yl)-[1,1′-biphenyl]-3-yl)-2-(4-fluorophenyl)acetamide]",398
14,"CC(C)(C)Sc1ccc(-c2ccccc2-c2nn[nH]n2)cc1NC(=O)Cc1ccccc1 [Example 25, N-(4-(tert-butylthio)-2′-(2H-tetrazol-5-yl)-[1,1′-biphenyl]-3-yl)-2-phenylacetamide]",398
15,"Cc1ccc(CC(=O)Nc2cc(-c3ccccc3-c3nn[nH]n3)ccc2SC(C)(C)C)nc1 [Example 26, N-(4-(tert-butylthio)-2′-(2H-tetrazol-5-yl)-[1,1′-biphenyl]-3-yl)-2-(5-methylpyridin-2-yl)acetamide]",794
16,CC(C)(C)OC(=O)N1CCC(CC(=O)Nc2cc(-c3ccccc3-c3nn[nH]n3)ccc2SC(C)(C)C)CC1 [Example 29],5010
17,"CC(C)(C)Sc1ccc(-c2ccccc2-c2nn[nH]n2)cc1NC(=O)CC1CCNCC1 [Example 30, N-(4-(tert-butylthio)-2′-(2H-tetrazol-5-yl)-[1,1′-biphenyl]-3-yl)-2-(piperidin-4-yl)acetamide Hydrochloride]",> 10000
18,"CC(=O)N1CCC(CC(=O)Nc2cc(-c3ccccc3-c3nn[nH]n3)ccc2SC(C)(C)C)CC1 [Example 31, 2-(1-Acetylpiperidin-4-yl)-N-(4-(tert-butylthio)-2′-(2H-tetrazol-5-yl)-[1,1′-biphenyl]-3-yl)acetamide]",> 10000
19,"CC(C)(C)Sc1ccc(-c2ccccc2-c2nn[nH]n2)cc1NC(=O)CC1CCN(S(C)(=O)=O)CC1 [Example 32, N-(4-(tert-butylthio)-2′-(2H-tetrazol-5-yl)-[1,1′-biphenyl]-3-yl)-2-(1-(methylsulfonyl)piperidin-4-yl)acetamide]",> 10000
20,"COCC(=O)Nc1cc(-c2ccccc2-c2nn[nH]n2)ccc1SC(C)(C)C [Example 33, N-(4-(tert-butylthio)-2′-(2H-tetrazol-5-yl)-[1,1′-biphenyl]-3-yl)-2-methoxyacetamide]",7940
21,"CC(C)(C)Sc1ccc(-c2ccccc2-c2nn[nH]n2)cc1NC(=O)Cc1ccc2c(c1)OCO2 [Example 38, 2-(Benzo[d][1,3]dioxol-5-yl)-N-(4-(tert-butylthio)-2′-(2H-tetrazol-5-yl)-[1,1′-biphenyl]-3-yl)acetamide]",100
22,"CC(C)(C)Sc1ccc(-c2ccccc2-c2nn[nH]n2)cc1Nc1nc(Cl)ns1 [Example 42, N-(4-(tert-butylthio)-2′-(2H-tetrazol-5-yl)-[1,1′-biphenyl]-3-yl)-3-chloro-1,2,4-thiadiazol-5-amine]",126
23,"CC(CC(=O)O)c1ccc(SC(C)(C)C)c(Nc2nc(Cl)ns2)c1 (stereo not drawn) [Example 45, 3-(4-(tert-Butylthio)-3-((3-chloro-1,2,4-thiadiazol-5-yl)amino)phenyl)butanoic Acid]",2510
24,"Cc1ccc(CC(=O)Nc2cc(-c3ccccc3-c3nnn(COP(=O)(OC(C)(C)C)OC(C)(C)C)n3)ccc2SC(C)(C)C)cc1 [Example 49, di-tert-butyl ((5-(4′-(tert-butylthio)-3′-(2-(p-tolyl)acetamido)-[1,1′-biphenyl]-2-yl)-2H-tetrazol-2-yl)methyl) phosphate]",1000
25,"Cc1ccc(CC(=O)Nc2cc(-c3ccccc3-c3nnnn3COP(=O)(OC(C)(C)C)OC(C)(C)C)ccc2SC(C)(C)C)cc1 [Example 50, di-tert-butyl ((5-(4′-(tert-butylthio)-3′-(2-(p-tolyl)acetamido)-[1,1′-biphenyl]-2-yl)-1H-tetrazol-1-yl)methyl) phosphate]",126
26,"CC(=O)OCn1nnc(-c2ccccc2-c2ccc(SC(C)(C)C)c(NC(=O)Cc3ccc(C)cc3)c2)n1 [Example 57, (5-(4′-(tert-Butylthio)-3′-(2-(p-tolyl)acetamido)-[1,1′-biphenyl]-2-yl)-2H-tetrazol-2-yl)methyl Acetate]",25.1
27,"CC(=O)OCn1nnnc1-c1ccccc1-c1ccc(SC(C)(C)C)c(NC(=O)Cc2ccc(C)cc2)c1 [Example 58, (5-(4′-(tert-butylthio)-3′-(2-(p-tolyl)acetamido)-[1,1′-biphenyl]-2-yl)-1H-tetrazol-1-yl)methyl Acetate]",39.8
